According to PMC3651166, “Differential Cytotoxic Activity of a Novel Palladium-Based Compound on Prostate Cell Lines, Primary Prostate Epithelial Cells and Prostate Stem Cells” (PLoS ONE, 2013):

Experiments:
[1] = tested on: primary prostate epithelial cells; assay: Flow cytometry cell cycle analysis, primary cells; format: cell-based, human; settings: primary prostate epithelial cells, 48 h post-treatment
Protocol: (§1) Following drug treatment, floating cells in the media were pooled with adherent cells, which were collected by trypsinisation. Following centrifugation cells were resuspended in 0.5 ml PBS. Cells were fixed in 2 ml ice cold 70% ethanol, which was added in a dropwise fashion while vortexing. Cells were incubated on ice for 30 min then washed in 5 ml PBS and resuspended in 0.4 ml PBS. Following storage at 4°C overnight, 50 µl of RNAse (1 mg/ml) and 50 µl of propidium iodide (1 mg/ml) were added to the cells. Following incubation at 37°C for 30 min the cells were analysed for 2N and 4N DNA content on a flow cytometer (Cyan ADP Analyser, Beckman Coulter).

[2] = tested on: LC3-II; assay: Western blotting and immunofluorescence for autophagy, primary cells; format: cell-based, human; settings: all primary cells
Protocol: γH2AX staining: Cells were seeded onto 8-well collagen I-coated chamber slides. […] After blocking of non-specific binding with 2% BSA in PBS with 1% goat serum for 1 hour at RT, primary antibody (anti-phospho-histone H2A.X (Ser139), clone JBW301, Millipore, Cat no. 05–636) at 1∶1000 dilution was added in 3% BSA in PBS at 4°C overnight followed by three washes in 0.5% BSA in PBS with 0.175% Tween 20. Following incubation with secondary antibody (Goat anti-mouse Alexa Fluor 568, Invitrogen, Cat no. A-11004) at 1∶1000 dilution for 45 min in 3% BSA in PBS and three more washes in the same washing buffer, the slides were mounted using Vectashield with DAPI (Vector Laboratories, Cat no. H-1200). LC3-B staining: Cells were treated as above then fixed with 4% paraformaldehyde, followed by an incubation in 0.3% Triton X-100. After blocking with 10% normal goat serum, cells were incubated in anti-LC3B 1∶200 (Ab51520, abcam) diluted in 0.1% Triton X-100 in PBS. Secondary antibody was Alexa Fluor 568 goat anti-rabbit IgG 1∶1000 (Invitrogen A11011).

[3] = tested on: cleaved caspase-3; assay: Western blotting for apoptosis, cell lines; format: cell-based, human; settings: BPH-1, PNT2-C2 and P4E6 cells
Protocol: (§2) Following drug treatment, cell lysates were harvested using Cytobuster Protein Extraction Reagent (71009, EMD Millipore, Darmstadt, Germany) with protease inhibitors (cOmplete, EDTA-free Protease Inhibitor Cocktail Tablets, Roche Applied Science, UK). 20 µg of protein extract were loaded on 12% SDS-PAGE gels and wet-transferred to a PVDF membrane. Antibodies used include: monoclonal anti-β-actin 1∶5000 (A5316, Sigma-Aldrich), anti-LC3B 1∶3000 (Ab51520, abcam), cleaved caspase-3 (Asp175) 1∶1000 (9661S, Cell Signaling Technology) and secondary antibodies were Rabbit anti-mouse-HRP 1∶10000 (P0260, Dako) and anti-rabbit IgG HRP-linked 1∶5000 (Cell Signaling Technology Inc. 7074S). Kaleidoscope protein marker was run on each gel (161-0324, Bio-Rad).

[4] = tested on: PNT2-C2, BPH-1, P4E6, PC-3 and LNCaP; assay: Flow cytometry cell cycle analysis, cell lines; format: cell-based, human; settings: PNT2-C2, PC3 and LNCaP cell lines, 48 h post-treatment
Protocol: as §1

[5] = tested on: LC3-II; assay: Western blotting for autophagy, cell lines; format: cell-based, human; settings: BPH-1, PNT2-C2 and P4E6 cells
Protocol: as §2

[6] = tested on: stem cells (SCs), transit-amplifying cells (TAs) and committed basal cells (CBs); assay: ATP viability assay on fractionated primary cells; format: cell-based; settings: 25 µM, ATP assay, not statistically significant
Protocol: Epithelial cells from human tumour or BPH materials were cultured for several weeks and the cells treated at very low passages. The cultured basal cell population were trypsinized, resuspended in SCM and then plated on BSA-blocked collagen I-coated plates. […] The cells that attached to substratum were trypsinised, resuspended in MACs buffer and incubated with CD133-microbeads (Cat no. 130-050-801, Miltenyi Biotec Inc., Auburn, CA, USA). MACs MS columns (Cat no. 130-042-201, Miltenyi Biotec Inc., Auburn, CA, USA) were used to select the CD133^+ and CD133^− cells. Finally, the three cell populations were obtained: stem cells (SCs) - α2β1integrin^hi/CD133^+, transit-amplifying cells (TAs) - α2β1integrin^hi/CD133^− and committed basal cells (CBs) - α2β1integrin^lo.
This assay was employed for the bioluminescent determination of the adenosine 5′-triphosphate (ATP) released from fractionated living cells (cancer stem cells, transit amplifying cells and committed basal cells). As ATP is rapidly degraded in dead cells, high intracellular levels provide a selective assay for living cells. The ATP-bioluminescent somatic cell assay kit (FLASC, Sigma-Aldrich, Saint Louis, MO, USA) was used with protocol modifications. Briefly, 50–500 cells per well were seeded in a collagen-coated 96 well plate in triplicate. After treating cells for 72 h, 150 µL of medium was removed from each well. 50 µL of cell extraction reagent was added into each original well. Following 20 min incubation at RT, 50 µL of cell extract was transferred to a white 96-well plate. Finally, 50 µL of ATP assay mix solution was added into the wells and luminescence was read using a plate reader (PolarStar Optima, BMG Labtech, UK). Percent viability was calculated using the formula (% Viability = [(Sample RLU/Control RLU)]x100 where RLU refers to relative light units.

[7] = tested on: breast cancer cells; parameters: method as in PMID 21885165; settings: in vitro and in vivo; cited from earlier work

Row | SMILES | cell cycle effect [1] | LC3-II (autophagy) [2] | cleaved caspase-3 (apoptosis) [3] | cell cycle effect [4] | LC3-II expression (autophagy) [5] | viability of SCs versus TA and CB cells after treatment [6] | anti-growth activity [7]
1 | N.N.[Cl][Pt][Cl] [Cisplatin, reference compound] | S phase arrest | no significant change in LC3-I or LC3-II levels | clear induction of cleaved caspase-3 | S phase arrest | did not significantly change levels of LC3-I and LC3-II |  | 
2 | COc1cc([C@@H]2c3cc4c(cc3[C@@H](O[C@@H]3O[C@@H]5CO[C@@H](C)O[C@H]5[C@H](O)[C@H]3O)[C@H]3COC(=O)[C@H]23)OCO4)cc(OC)c1O [Etoposide, reference compound] | S phase arrest |  | clear induction of cleaved caspase-3 | S phase arrest | did not significantly change levels of LC3-I and LC3-II | SCs appeared to have increased viability compared to TA and CB cells | 
3 | O.O.O.O.O=C1[N-]S(=O)(=O)c2ccccc21.O=C1c2ccccc2S(=O)(=O)[N]1[Pd+].c1ccc(-c2cccc(-c3ccccn3)n2)nc1 [[Pd(sac)(terpy)](sac)·4 H2O] |  |  |  |  |  |  | powerful anti-growth activity
